Molecules are shown by their SMILES.

Holding throughout (type): cell-based, human
In one data set the test system is NTUB1. Kind of data set: Trial (B): MTT cytotoxicity assay, 72 hours. Particulars: 0-50 μM. The text has this: For the sake of proving therapeutic effects of the derivatives of 18β-glycyrrhetinic acid of the present invention, including 10, 11, 13-17 and 21-25, in treating of cancer, human bladder cancer cell line NTUB1, human prostate cancer cell line PC3 cataloged as CRL-1435 (reference to J. Formosan Med. Assoc. 1992; 91:608-13), and immortalized normal human urothelial cells SV-HUC1 cataloged as CRL-9520 are purchased from American Type Culture Collection (ATCC; Rockville, USA) and maintained in a culturing medium respectively till at a preferable density to carry out a serial of trials (comprising trial A to G) for evaluating cytotoxicities of the derivatives of 18β-glycyrrhetinic acid against cancer cells, and mechanisms thereof. […]
In trial (B), the cell lines of NTUB1, PC3, and SV-HUC1 are prepared in 96-well plates and co-incubated with the compounds 21, 23 or 25 in various concentrations of 0, 0.3, 1, 3, 5, 10, 30 and 50 μM, to analyze cytotoxic effects against either cancer cell or normal cells via a modified 3-[4,5-dimethylthiazol-2-yl]-2,5-diphenyltetrazolium bromide (MTT, Sigma Chemical Co.) assay. […] At co-incubation, 50 μL of MTT (2 mg/mL in PB) is added to each well to react for 3 hours, followed by centrifugating the 96-well plates at 1000 g for 10 min to remove supernatant, adding 150 μL DMSO in each well of the 96-well plates, and determining viability rates of the NTUB1, PC3, and SV-HUC1 cells separately by an absorbance spectrometry at 540 nm with a MRX (DYNEXCO) microplate reader.
On the technique in general: Tetrazolium assays rely on reduction of a dye to a coloured formazan, in cell work by metabolically active cells.

Data set [1] deals with NTUB1 cells. Kind of data set: Trial (F): mitochondrial membrane potential (JC-1) by flow cytometry. Particulars: for R1 (%): 30 minutes, JC-1, NTUB1. As for the experimental part: In trial (F), mitochondrial membrane potential (MMP) in NTUB1 cells is measured according to a journal article published by Martin et al., at 2009 in PloS one, in which a dysfunction of the mitochondria caused by ROS induced MPP decrease is supposed.
Referring to TABLE 6, the NTUB1 cells at a density of 3×10^5 cells/ml are prepared and assigned into 5 groups, including F1 to F5, to incubate in 10 μM carbonyl cyanide 3-chlorophenylhydrazone (CCCP), and 10, 25 and 50 μM of 25 respectively, for 30 minutes, followed by adding 1 μM of 5,5′,6,6′-tetrachloro-1,1′,3,3′-tetraethylbenzimidaolylcarbocyanine iodide (JC-1) (Molecular Probes, Eugene, Oreg., USA) in each group. Then, the NTUB1 cells in each group are washed with PBS buffer for 3 times, collected in PBS/2% BSA, washed twice by centrifugating at 800 g, 5 minutes and resuspending in 0.3 mL PBS/2% BSA, and finally analyzed by a FACSCalibur flow cytometer (Becton Dickinson), with the FACSCalibur flow cytometer determining and calculating a ratio of JC-1 aggregates (red fluorescence) to JC-1 monomers (green fluorescence) based on levels of MMP in each group.

The subject of data set [2] is NTUB1 cells. Kind of data set: Trial (E): cell cycle progression by flow cytometry (propidium iodide). Set-up: Sub-G1 / G1: unit not given here. Particulars: for G1 / G2/M / S / Sub-G1: 24 hours. The method, then:
In order to determine a relationship between the derivatives of 18β-glycyrrhetinic acid of the present invention and cell cycle arrest, trial (E) is carried out by analyzing cell cycle progression by flow cytometry. […] After that, cell cycle progression of each group is determined respectively by incubating with 50 μg/mL propidium iodide (Sigma, Co) and 50 μg/mL RNase A (Sigma, Co) in PBS at room temperature for 30 min, and analyzing by FACScan flow cytometer and Cell Quest sofeware.

On to `C=C(C)[C@@H]1CC[C@]2(C)[C@H](C(=O)C=C3[C@@H]4C[C@@](C)(C(=O)NC(C)C)CC[C@]4(C)CC[C@]32C)[C@@]1(C)CCC(=O)NC(C)C` [Compound 25, 3,4-seco-11-oxo-18β-olean-4(23),12-dien-3,30-diisopropyl carbamate], for which, in the data set with NTUB1, the “cytotoxic effect (survival ratio, FIGS. 4-6)” value is reported as “cytotoxic effects against to the cancer cells in a dose-dependent manner, particularly in against to NTUB1 cell”. The “R1 (%)” value in the data set with NTUB1 cells [1] (10 μM) is 94.14%; with NTUB1 cells [1] (25 μM), 87.17%; in the data set with NTUB1 cells [1] (50 μM), 55.65%. The “mitochondrial membrane potential” value in the data set with NTUB1 cells [1] (NTUB1, TABLE 6) was “decrease MPP in cancer cells in a dose-dependent manner”. Also, the G1 in the data set on NTUB1 cells [2] (25 μM, NTUB1) came to 49.51; in the data set on NTUB1 cells [2] (50 μM, NTUB1), 35.72; in the data set on NTUB1 cells [2] (75 μM, NTUB1) it was 14.69. The G2/M worked out at 12.68 in the data set with NTUB1 cells [2] (25 μM, NTUB1); 5.22 in the data set with NTUB1 cells [2] (50 μM, NTUB1); 4.00 in the data set on NTUB1 cells [2] (75 μM, NTUB1). The S amounted to 12.69 with NTUB1 cells [2] (25 μM, NTUB1); 3.15 in the data set with NTUB1 cells [2] (50 μM, NTUB1); 2.79 in the data set on NTUB1 cells [2] (75 μM, NTUB1). Besides, the Sub-G1 in the data set with NTUB1 cells [2] (25 μM, NTUB1) is 20.39; in the data set with NTUB1 cells [2] (50 μM, NTUB1) it was 55.71; in the data set on NTUB1 cells [2] (75 μM, NTUB1), 78.39. In the data set with NTUB1 cells [2] (25, 50 and 75 μM, NTUB1), the “cell cycle arrest” value was “does not induce cell cycle arrest”. Moreover, the “population of sub-G1 phase” value in the data set with NTUB1 cells [2] (25, 50 and 75 μM, NTUB1) is listed as “induce the population of sub-G1 phase to cancer cells in dose-dependent manner”. Also, the “S phase cells” value in the data set on NTUB1 cells [2] (NTUB1 exposed to compound) was “a decrease of S phase cells”.

(Values after patent US8686178B2, “Derivative of 18β-glycyrrhetinic acid apt to suppress cancer cells” (Kaohsiung Medical University, priority 2011, dated 2014).)
